Reference: PubChem BioAssay (NCI)
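The compound was tested at five concentrations on cells cultured in 96-well plates, with a 48-hour exposure period. GI50 is the concentration that inhibits growth by half. TGI denotes the concentration required for complete inhibition of growth.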

Key:
Test in all cases: DTP human tumour cell line panel, 48 h
[1] = tested on: HCT-116 colon
[2] = tested on: EKVX NSCLC
[3] = tested on: PC-3 prostate
[4] = tested on: MCF7 breast
[5] = tested on: BT-549 breast
[6] = tested on: HCT-15 colon
[7] = tested on: SF-539 CNS
[8] = tested on: SK-MEL-5 melanoma
[9] = tested on: A549 NSCLC
[10] = tested on: LOX IMVI melanoma
[11] = tested on: SF-268 CNS
[12] = tested on: SNB-19 CNS
[13] = tested on: SW-620 colon
[14] = tested on: U251 CNS
[15] = tested on: HOP-92 NSCLC
[16] = tested on: CAKI-1 renal
[17] = tested on: 786-0 renal
[18] = tested on: K-562 leukemia
[19] = tested on: SN12C renal
[20] = tested on: HT29 colon
[21] = tested on: SNB-75 CNS
[22] = tested on: IGROV1 ovarian
[23] = tested on: HS 578T breast
[24] = tested on: UACC-257 melanoma
[25] = tested on: T-47D breast
[26] = tested on: DU-145 prostate
[27] = tested on: NCI-H226 lung
[28] = tested on: TK-10 renal
[29] = tested on: HCC-2998 colon
[30] = tested on: SK-MEL-2 melanoma
[31] = tested on: SK-MEL-28 melanoma
[32] = tested on: MDA-MB-231 breast
[33] = tested on: NCI/ADR-RES ovarian
[34] = tested on: CCRF-CEM leukemia
[35] = tested on: OVCAR-5 ovarian
[36] = tested on: NCI-H522 lung
[37] = tested on: UACC-62 melanoma
[38] = tested on: OVCAR-3 ovarian
[39] = tested on: M14 melanoma
[40] = tested on: RPMI-8226 leukemia
[41] = tested on: MOLT-4 leukemia
[42] = tested on: HOP-62 NSCLC
[43] = tested on: ACHN renal
[44] = tested on: MDA-MB-435
[45] = tested on: KM12 colon
[46] = tested on: COLO 205 colon
[47] = tested on: SF-295 CNS
[48] = tested on: NCI-H23 lung
[49] = tested on: UO-31 renal
[50] = tested on: OVCAR-8 ovarian
[51] = tested on: OVCAR-4 ovarian
[52] = tested on: SK-OV-3 ovarian
[53] = tested on: A498 renal
[54] = tested on: MALME-3M melanoma
[55] = tested on: RXF 393 renal
[56] = tested on: NCI-H460 lung

COc1ccc(-[n+]2nc(S(=O)(=O)O)c(/C=C/c3ccc(N(C)C)cc3)cc2C#N)cc1
TGI [1]: > 100 µM
TGI [2]: > 100 µM
TGI [3]: > 100 µM
TGI [4]: > 100 µM
TGI [5]: > 100 µM
TGI [6]: > 100 µM
TGI [7]: > 100 µM
TGI [8]: > 100 µM
TGI [9]: > 100 µM
TGI [10]: > 100 µM
TGI [11]: > 100 µM
TGI [12]: > 100 µM
TGI [13]: > 100 µM
TGI [14]: > 100 µM
TGI [15]: > 100 µM
TGI [16]: > 100 µM
TGI [17]: > 100 µM
TGI [18]: > 100 µM
TGI [19]: > 100 µM
TGI [20]: > 100 µM
TGI [21]: > 100 µM
TGI [22]: > 100 µM
TGI [23]: > 100 µM
TGI [24]: > 100 µM
TGI [25]: > 100 µM
TGI [26]: > 100 µM
TGI [27]: > 100 µM
TGI [28]: > 100 µM
TGI [29]: > 100 µM
TGI [30]: > 100 µM
TGI [31]: > 100 µM
TGI [32]: > 100 µM
TGI [33]: > 100 µM
TGI [34]: > 100 µM
TGI [35]: > 100 µM
TGI [36]: > 100 µM
TGI [37]: > 100 µM
TGI [38]: > 100 µM
TGI [39]: > 100 µM
TGI [40]: > 100 µM
TGI [41]: > 100 µM
TGI [42]: > 100 µM
TGI [43]: > 100 µM
TGI [44]: > 100 µM
TGI [45]: > 100 µM
TGI [46]: > 100 µM
TGI [47]: > 100 µM
TGI [48]: > 100 µM
TGI [49]: > 100 µM
TGI [50]: > 100 µM
TGI [51]: > 100 µM
TGI [52]: > 100 µM
TGI [53]: > 100 µM

CO/N=C(\COc1ccc2c(c1)oc(=O)c1cc(OC)ccc12)c1ccc(OC)cc1
GI50 [1]: > 100 µM
TGI [1]: > 100 µM
GI50 [2]: > 100 µM
TGI [2]: > 100 µM
GI50 [3]: > 100 µM
TGI [3]: > 100 µM
GI50 [4]: > 100 µM
TGI [4]: > 100 µM
GI50 [5]: > 100 µM
TGI [5]: > 100 µM
GI50 [6]: > 100 µM
TGI [6]: > 100 µM
GI50 [7]: > 100 µM
TGI [7]: > 100 µM
GI50 [8]: > 100 µM
TGI [8]: > 100 µM
GI50 [9]: > 100 µM
TGI [9]: > 100 µM
GI50 [10]: > 100 µM
TGI [10]: > 100 µM
GI50 [11]: > 100 µM
TGI [11]: > 100 µM
GI50 [12]: > 100 µM
TGI [12]: > 100 µM
GI50 [13]: > 100 µM
TGI [13]: > 100 µM
GI50 [14]: > 100 µM
TGI [14]: > 100 µM
GI50 [15]: > 100 µM
TGI [15]: > 100 µM
GI50 [16]: > 100 µM
TGI [16]: > 100 µM
GI50 [17]: > 100 µM
TGI [17]: > 100 µM
GI50 [18]: > 100 µM
TGI [18]: > 100 µM
GI50 [19]: > 100 µM
TGI [19]: > 100 µM
GI50 [20]: > 100 µM
TGI [20]: > 100 µM
GI50 [22]: > 100 µM
TGI [22]: > 100 µM
GI50 [23]: > 100 µM
TGI [23]: > 100 µM
GI50 [24]: > 100 µM
TGI [24]: > 100 µM
GI50 [25]: > 100 µM
TGI [25]: > 100 µM
GI50 [26]: > 100 µM
TGI [26]: > 100 µM
GI50 [27]: > 100 µM
TGI [27]: > 100 µM
GI50 [28]: > 100 µM
TGI [28]: > 100 µM
GI50 [29]: > 100 µM
TGI [29]: > 100 µM
GI50 [30]: > 100 µM
TGI [30]: > 100 µM
GI50 [31]: > 100 µM
TGI [31]: > 100 µM
GI50 [32]: > 100 µM
TGI [32]: > 100 µM
GI50 [33]: > 100 µM
TGI [33]: > 100 µM
GI50 [34]: > 100 µM
TGI [34]: > 100 µM
GI50 [54]: > 100 µM
TGI [54]: > 100 µM
GI50 [35]: > 100 µM
TGI [35]: > 100 µM
GI50 [36]: > 100 µM
TGI [36]: > 100 µM
GI50 [37]: > 100 µM
TGI [37]: > 100 µM
GI50 [38]: > 100 µM
TGI [38]: > 100 µM
GI50 [39]: > 100 µM
TGI [39]: > 100 µM
GI50 [40]: > 100 µM
TGI [40]: > 100 µM
GI50 [41]: > 100 µM
TGI [41]: > 100 µM
GI50 [42]: > 100 µM
TGI [42]: > 100 µM
GI50 [43]: > 100 µM
TGI [43]: > 100 µM
GI50 [44]: > 100 µM
TGI [44]: > 100 µM
GI50 [55]: > 100 µM
TGI [55]: > 100 µM
GI50 [56]: > 100 µM
TGI [56]: > 100 µM
GI50 [45]: > 100 µM
TGI [45]: > 100 µM
GI50 [46]: > 100 µM
TGI [46]: > 100 µM
GI50 [47]: > 100 µM
TGI [47]: > 100 µM
GI50 [48]: > 100 µM
TGI [48]: > 100 µM
GI50 [49]: > 100 µM
TGI [49]: > 100 µM
GI50 [50]: > 100 µM
TGI [50]: > 100 µM
GI50 [51]: 20.5 µM
TGI [51]: > 100 µM
GI50 [52]: > 100 µM
TGI [52]: > 100 µM
GI50 [53]: > 100 µM
TGI [53]: > 100 µM
